ChEMBL document CHEMBL4706477, “Synthesis and Biological Evaluation of Calothrixins B and their Deoxygenated Analogues” (J Med Chem, 2018)
pIC50: −log10 of the molar value. The source made the active and inactive calls. The calls are words filed in the database; no cut-off is given here.

Key:
HCT-116 [1] = experiment: cells; conditions: Homo sapiens, HCT-116, 48 h
Description: Antiproliferative activity against human HCT-116 p53-/- cells assessed as reduction in cell viability incubated for 48 hrs by sulphorhodamine B assay

MCF7 = experiment: cells; conditions: Homo sapiens, MCF7, 48 h
Description: Antiproliferative activity against human MCF7 cells assessed as reduction in cell viability incubated for 48 hrs by sulphorhodamine B assay

MDA-MB-231 = experiment: cells; conditions: Homo sapiens, MDA-MB-231, 48 h
Description: Antiproliferative activity against human MDA-MB-231 cells assessed as reduction in cell viability incubated for 48 hrs by sulphorhodamine B assay

HCT-116 [2] = experiment: cells; conditions: Homo sapiens, HCT-116, 48 h; remark: listed apart in the source
Description: Antiproliferative activity against human HCT-116 cells assessed as reduction in cell viability incubated for 48 hrs by sulphorhodamine B assay

HeLa = experiment: cells; conditions: Homo sapiens, 48 h
Description: Antiproliferative activity against human HeLa cells assessed as reduction in cell viability incubated for 48 hrs by sulphorhodamine B assay

SiHa = experiment: cells; conditions: Homo sapiens, 48 h
Description: Antiproliferative activity against human SiHa cells assessed as reduction in cell viability incubated for 48 hrs by sulphorhodamine B assay

Jurkat = experiment: cells; conditions: Homo sapiens, 48 h
Description: Antiproliferative activity against human Jurkat cells assessed as reduction in cell viability incubated for 48 hrs by sulphorhodamine B assay

U-251 = experiment: cells; conditions: Homo sapiens, U-251, 48 h
Description: Antiproliferative activity against human U-251 cells assessed as reduction in cell viability incubated for 48 hrs by sulphorhodamine B assay

NCI-H460 = experiment: cells; conditions: Homo sapiens, NCI-H460, 48 h
Description: Antiproliferative activity against human NCI-H460 cells assessed as reduction in cell viability incubated for 48 hrs by sulphorhodamine B assay

A549 = experiment: Antiproliferative activity against human A549 cells assessed as reduction in cell viability incubated for 48 hrs by sulphorhodamine B assay; format: functional
HEK293 = experiment: Antiproliferative activity against human HEK293 cells assessed as reduction in cell viability incubated for 48 hrs by sulphorhodamine B assay; format: functional
[3] = target: T1, DNA topoisomerase 2-alpha (Homo sapiens, UniProt P11388); experiment: Inhibition of recombinant human topoisomerase 2 assessed as decrease in relaxation of supercoiled pBlue-Script KS(+) plasmid DNA at 40 uM incubated for 30 mins by ethidium bromide staining based gel electrophoresis method relative to control
[4] = target: T2, DNA topoisomerase 1 (Homo sapiens) (UniProt P11387); experiment: Inhibition of human topoisomerase 1 assessed as induction of negative supercoiled DNA using relaxed pBlue-Script KS(+) plasmid DNA as substrate measured after 15 mins by agarose gel electrophoresis analysis; conditions: dose 60-100 µM
T2 sequence (whole entry): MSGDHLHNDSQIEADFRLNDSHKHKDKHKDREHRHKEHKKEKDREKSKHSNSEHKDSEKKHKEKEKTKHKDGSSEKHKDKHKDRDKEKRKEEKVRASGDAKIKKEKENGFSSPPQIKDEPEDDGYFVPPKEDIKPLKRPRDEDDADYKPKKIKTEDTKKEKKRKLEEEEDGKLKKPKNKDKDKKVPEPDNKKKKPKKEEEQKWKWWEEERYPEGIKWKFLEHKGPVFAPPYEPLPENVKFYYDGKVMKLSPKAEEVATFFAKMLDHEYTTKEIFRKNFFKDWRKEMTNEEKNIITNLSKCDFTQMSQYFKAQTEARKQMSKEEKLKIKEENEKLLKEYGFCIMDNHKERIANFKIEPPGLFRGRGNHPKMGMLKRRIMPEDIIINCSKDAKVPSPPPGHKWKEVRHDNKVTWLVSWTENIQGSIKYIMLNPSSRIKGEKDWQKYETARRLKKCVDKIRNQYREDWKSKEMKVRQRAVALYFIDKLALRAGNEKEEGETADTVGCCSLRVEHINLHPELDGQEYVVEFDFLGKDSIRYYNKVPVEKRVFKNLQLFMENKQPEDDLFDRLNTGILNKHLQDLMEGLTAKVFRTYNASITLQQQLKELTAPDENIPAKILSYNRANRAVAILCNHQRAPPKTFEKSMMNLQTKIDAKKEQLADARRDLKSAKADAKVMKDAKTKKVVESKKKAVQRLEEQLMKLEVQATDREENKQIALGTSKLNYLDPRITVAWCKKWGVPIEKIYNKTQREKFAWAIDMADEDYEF

[5] = target: T1, DNA topoisomerase 2-alpha; experiment: Inhibition of recombinant human topoisomerase 2 assessed as decrease in relaxation of supercoiled pBlue-Script KS(+) plasmid DNA incubated for 30 mins by ethidium bromide staining based gel electrophoresis method
[6] = target: T1, DNA topoisomerase 2-alpha; experiment: Inhibition of human topoisomerase 2 assessed as inhibition of etoposide-induced DNA cleavage complex formation by measuring linear DNA formation at 30 to 50 uM incubated for 30 mins using pRYG DNA as substrate by agarose gel electrophoresis analysis; conditions: dose 30-50 µM
[7] = target: T1, DNA topoisomerase 2-alpha; experiment: Inhibition of recombinant human topoisomerase 2 assessed as decrease in relaxation of supercoiled pBlue-Script KS(+) plasmid DNA at 200 uM incubated for 30 mins by ethidium bromide staining based gel electrophoresis method
Calf thymus DNA = experiment: Binding affinity to calf thymus DNA assessed as hypochromic effect at 3*10^-5 mol/L by double beam UV-Vis spectroscopic analysis; format: nucleic-acid assay; conditions: Bos taurus

T1 sequence (P11388 whole entry): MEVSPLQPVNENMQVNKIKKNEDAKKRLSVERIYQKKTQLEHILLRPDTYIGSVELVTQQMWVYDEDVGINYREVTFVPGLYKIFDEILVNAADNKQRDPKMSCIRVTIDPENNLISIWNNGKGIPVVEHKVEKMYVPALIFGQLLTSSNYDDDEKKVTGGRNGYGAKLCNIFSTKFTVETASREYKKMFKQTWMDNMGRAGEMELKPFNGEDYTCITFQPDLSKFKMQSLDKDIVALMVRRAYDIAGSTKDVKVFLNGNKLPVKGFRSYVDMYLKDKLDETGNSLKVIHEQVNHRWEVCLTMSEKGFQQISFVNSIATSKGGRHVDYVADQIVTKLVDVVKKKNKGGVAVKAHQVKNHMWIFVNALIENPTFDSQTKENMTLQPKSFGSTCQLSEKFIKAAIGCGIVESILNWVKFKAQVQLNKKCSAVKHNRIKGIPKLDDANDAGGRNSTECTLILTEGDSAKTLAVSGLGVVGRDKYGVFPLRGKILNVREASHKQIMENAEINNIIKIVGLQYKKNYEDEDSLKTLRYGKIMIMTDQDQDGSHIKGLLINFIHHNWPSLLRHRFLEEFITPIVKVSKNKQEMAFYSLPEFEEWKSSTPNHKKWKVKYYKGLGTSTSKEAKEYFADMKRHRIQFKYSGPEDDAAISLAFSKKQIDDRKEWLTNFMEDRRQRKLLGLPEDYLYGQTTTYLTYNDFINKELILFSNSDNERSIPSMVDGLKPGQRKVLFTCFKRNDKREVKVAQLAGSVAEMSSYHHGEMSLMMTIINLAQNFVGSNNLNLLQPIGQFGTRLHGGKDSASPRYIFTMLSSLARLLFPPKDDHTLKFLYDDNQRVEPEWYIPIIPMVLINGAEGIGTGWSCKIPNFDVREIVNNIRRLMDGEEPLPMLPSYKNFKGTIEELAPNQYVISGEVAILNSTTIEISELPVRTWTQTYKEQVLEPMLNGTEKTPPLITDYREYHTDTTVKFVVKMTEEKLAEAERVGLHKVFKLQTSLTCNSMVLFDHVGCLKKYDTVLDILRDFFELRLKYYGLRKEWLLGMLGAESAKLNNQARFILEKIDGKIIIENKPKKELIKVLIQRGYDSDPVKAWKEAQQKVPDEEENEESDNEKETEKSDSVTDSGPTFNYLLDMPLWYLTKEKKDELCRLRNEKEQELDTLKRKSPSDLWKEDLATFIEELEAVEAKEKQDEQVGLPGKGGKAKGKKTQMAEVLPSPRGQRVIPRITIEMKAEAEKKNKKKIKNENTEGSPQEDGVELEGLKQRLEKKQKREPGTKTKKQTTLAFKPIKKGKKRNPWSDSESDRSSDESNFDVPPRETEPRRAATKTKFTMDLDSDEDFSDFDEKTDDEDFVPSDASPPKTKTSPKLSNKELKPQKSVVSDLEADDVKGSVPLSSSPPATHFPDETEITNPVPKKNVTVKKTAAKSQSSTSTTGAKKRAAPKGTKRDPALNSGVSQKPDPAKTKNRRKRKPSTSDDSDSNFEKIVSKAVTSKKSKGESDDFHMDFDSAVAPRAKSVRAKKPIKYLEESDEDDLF

Row | GI50 (HCT-116 [1]) [nM] | GI50 (MCF7) [nM] | GI50 (MDA-MB-231) [nM] | GI50 (HCT-116 [2]) [nM] | GI50 (HeLa) [nM] | GI50 (Jurkat) [nM] | GI50 (U-251) [nM] | GI50 (NCI-H460) [nM] | GI50 (A549) [nM] | inhibition [3] [%] | Activity [4] | pIC50 [5] | IC90 [5] [nM] | inhibition [5] | inhibition [6] | inhibition [7] [%] | Activity (Calf thymus DNA) [%] | SMILES | GI50 (SiHa) [nM] | GI50 (HEK293) [nM]
1 | > 4000 | 1350 | > 4000 | > 4000 | 2000 | > 4000 | > 4000 | > 4000 |  |  |  |  |  |  |  |  |  | O=C1c2[nH]c3ccccc3c2C(=O)c2cnc3cc(F)c(Cl)cc3c21 | > 4000 | 
2 |  | 270 | > 4000 | 30000 | 50 | > 4000 | > 4000 | 40 | > 4000 |  |  |  |  |  |  |  |  | Cc1c2cnc3cc(F)ccc3c2cc2[nH]c3ccccc3c12 | > 4000 | > 4000
3 | > 4000 | 800 | > 4000 | 3500 | > 4000 | > 4000 | > 4000 | > 4000 |  |  |  |  |  |  |  |  |  | O=C1c2cnc3cccc(Cl)c3c2C(=O)c2[nH]c3ccccc3c21 | > 4000 | 
4 | 1130 | 220 | 270 | 700 | 290 | 1500 | 600 | 1100 |  |  |  |  |  |  |  |  |  | O=C1c2[nH]c3ccccc3c2C(=O)c2cnc3ccc(Br)cc3c21 | 1400 | 
5 | > 4000 | > 4000 | > 4000 | 630 | > 4000 | > 4000 | > 4000 | > 4000 |  |  |  |  |  |  |  |  |  | COc1ccc2ncc3c(c2c1)C(=O)c1[nH]c2ccccc2c1C3=O | > 4000 | 
6 | > 4000 | 360 | > 4000 | > 4000 | > 4000 | > 4000 | > 4000 | > 4000 |  |  |  |  |  |  |  |  |  | COc1cc2ncc3c(c2cc1OC)C(=O)c1[nH]c2ccccc2c1C3=O | > 4000 | 
7 |  | > 4000 | > 4000 | 28000 | 430 | > 4000 | > 4000 | 10000 | > 4000 |  |  |  |  |  |  |  |  | Clc1ccc2c(c1)ncc1cc3c(cc12)[nH]c1ccccc13 | > 4000 | > 4000
8 |  | 1000 | 1100 | 1050 | 1400 |  | 650 | 1050 |  |  |  |  |  |  |  |  |  | Nc1nc2ccccc2c2cc3c(cc12)[nH]c1ccccc13 | 1300 | 
9 |  | 1000 | 1000 | 1000 | 800 |  | 1050 | 1000 |  |  |  |  |  |  |  |  |  | Nc1nc2ccccc2c2cc3[nH]c4ccccc4c3cc12 | 1050 | 
10 |  | > 4000 | > 4000 | > 50000 | 1400 | > 4000 | > 4000 | 10000 | > 4000 |  |  |  |  |  |  |  |  | c1ccc2c(c1)ncc1cc3[nH]c4ccccc4c3cc12 | > 4000 | > 4000
11 |  | > 4000 | > 4000 | 15000 | 360 | > 4000 | > 4000 | 10500 | > 4000 | 98 | Dose-dependent effect | 4.72 | 28800 | Dose-dependent effect | Active | 100 |  | Cc1c2cnc3ccccc3c2cc2[nH]c3ccccc3c12 | > 4000 | > 4000
12 | 2600 | 600 | 1000 | 1500 | 210 | 1500 | 2000 | 1270 |  |  |  |  |  |  |  |  |  | O=C1c2[nH]c3ccccc3c2C(=O)c2cnc3cc(Br)ccc3c21 | > 4000 | 
13 |  | 130 | 1250 | 1200 | 10 |  | 1200 | 140 |  |  |  |  |  |  |  |  |  | Nc1nc2cc(F)ccc2c2cc3[nH]c4ccccc4c3cc12 | 1350 | 
14 | > 4000 | > 4000 | 1800 | > 4000 | 1800 | > 4000 | > 4000 | > 4000 |  |  |  |  |  |  |  |  |  | O=C1c2[nH]c3ccccc3c2C(=O)c2cnc3cc(Cl)c(Cl)cc3c21 | > 4000 | 
15 | > 4000 | 110 | > 4000 | > 4000 | > 4000 | > 4000 | > 4000 | > 4000 |  |  |  |  |  |  |  |  |  | O=C1c2[nH]c3ccccc3c2C(=O)c2cnc3cc4c(cc3c21)OCO4 | > 4000 | 
16 | 1500 | 350 | 170 | 420 | 500 | 1400 | 500 | 700 |  |  |  |  |  |  |  |  |  | O=C1c2[nH]c3ccccc3c2C(=O)c2cnc3ccc(Cl)cc3c21 | 1670 | 
17 | > 4000 | 600 | 310 | 330 | 390 | > 4000 | 1830 | > 4000 |  |  |  |  |  |  |  |  |  | COc1cccc2c3c(cnc12)C(=O)c1c([nH]c2ccccc12)C3=O | > 4000 | 
18 | 2600 | 530 | 360 | 1500 | 70 | 3550 | 2830 | 1400 |  |  |  |  |  |  |  |  |  | O=C1c2[nH]c3ccccc3c2C(=O)c2cnc3cc(Cl)ccc3c21 | 1600 | 
19 | > 4000 | 660 | 400 | > 4000 | 270 | > 4000 | > 4000 | 2250 |  |  |  |  |  |  |  |  |  | O=C1c2[nH]c3ccccc3c2C(=O)c2cnc3cc(F)c(Br)cc3c21 | > 4000 | 
20 |  | > 4000 | > 4000 | > 50000 | > 4000 | > 4000 | > 4000 | > 50000 | > 4000 |  |  |  |  |  |  |  |  | c1ccc2c(c1)ccc1cc3c(cc12)[nH]c1ccccc13 | > 4000 | > 4000
21 |  | 950 | 900 | 1000 | 530 |  | 1200 | 1050 |  |  |  |  |  |  |  |  | 38 | Nc1nc2cc(Cl)ccc2c2cc3[nH]c4ccccc4c3cc12 | 1100 | 
22 | > 4000 | > 4000 | > 4000 | > 4000 | > 4000 | > 4000 | > 4000 | > 4000 |  |  |  |  |  |  |  |  |  | O=C1c2cnc3c(Cl)cccc3c2C(=O)c2[nH]c3ccccc3c21 | > 4000 | 
23 | 2000 | 500 | 200 | 1200 | 500 | 2600 | 1500 | 730 |  |  |  |  |  |  |  |  |  | O=C1c2cnc3c(Cl)cc(Cl)cc3c2C(=O)c2[nH]c3ccccc3c21 | 1800 | 

Row | SMILES | GI50 (HCT-116 [1]) [nM] | GI50 (MCF7) [nM] | GI50 (MDA-MB-231) [nM] | GI50 (HCT-116 [2]) [nM] | GI50 (HeLa) [nM] | GI50 (Jurkat) [nM] | GI50 (U-251) [nM] | GI50 (NCI-H460) [nM] | GI50 (A549) [nM] | inhibition [3] [%] | Activity [4] | pIC50 [5] | IC90 [5] [nM] | inhibition [5] | inhibition [6] | inhibition [7] [%] | Activity (Calf thymus DNA) [%] | GI50 (SiHa) [nM] | GI50 (HEK293) [nM]
24 | CC[C@@]1(O)C(=O)OCc2c1cc1n(c2=O)Cc2cc3ccccc3nc2-1 [CAMPTOTHECIN] | 195 | 60 | 400 | 50 | 190 | 60 | 10 | 5.7 |  |  |  |  |  |  |  |  |  | 550 | 
